Where “and” joins values, the source holds several entries; their conditions need not be identical. Identical values can stand only once. Like-named read-outs stand apart in the source and are kept apart here. Ends that are not written are not given here.
Assays:
[1] = test system: E-coli CCARM 1229; assay: microbe, parasite or virus in culture; assay type: cell-based, Escherichia coli; settings: E-coli CCARM 1229, antibiotic-resistant
Excerpt: (§1) To investigate the antibacterial activity of the HPA3P2 peptide prepared by the method of Example 1, the inventors first measured the minimal inhibitory concentration (MIC) that is the minimum concentration of the peptide for the strain to remain as not-decomposed.
(§2) Particularly, to measure the antibacterial activity, the standard strains were obtained. For example, Gram-negative bacteria such as E. coli (KCTC 1682) and Pseudomonas aeruginosa (KCTC 1637), and Gram-positive bacteria such as Staphylococcus aureus (KCTC […]) and Bacillus subtilis (KCTC 1918) were provided from Gene Bank, Korea Research Institute of Bioscience & Biotechnology. In addition, a variety of the antibiotic-resistant strains such as Staphylococcus aureus (CCARM 3090, 3018, 3114, 3126) and E. coli (CCARM 1229, 1238) were distributed from the culture collection at Ewha Womans University. And Pseudomonas aeruginosa (1034, 3904, 4007, 4891) were obtained from the otitis media patients at Chonnam National University Hospital. Each strain was cultured in LB medium (1% bacto-trypton, 0.5% bacto-yeast extract, 1% NaCl; Sigma, USA) until the strain grew to mid-log phase. The strain was diluted with 1% bacto-peptone medium (Difco, USA) at the density of 5×10^5 cells/100 μl, which was then inoculated in micro-titrate plate (Nunc, USA). The peptide synthesized in Example 1 and the peptides in Table 1 were added to the plate (1/2 dilution from 96 well), followed by culture at 37° C. for 6 hours. OD620 was measured by using micro-titrate plate reader (Merck Elisa reader, Germany) to determine the MIC value of each strain.

[2] = test system: E. coli CCARM 1238; assay: microbe, parasite or virus in culture; assay type: cell-based, Escherichia coli; settings: E. coli CCARM 1238, antibiotic-resistant
Excerpt: as §1, §2

[3] = test system: S. aureus CCARM 3018; assay: microbe, parasite or virus in culture; assay type: cell-based, Staphylococcus aureus; settings: S. aureus CCARM 3018, antibiotic-resistant
Excerpt: as §1, §2

[4] = test system: S. aureus CCARM 3126; assay: microbe, parasite or virus in culture; assay type: cell-based, Staphylococcus aureus; settings: S. aureus CCARM 3126, antibiotic-resistant
Excerpt: as §1, §2

[5] = test system: S. aureus CCARM 3090; assay: microbe, parasite or virus in culture; assay type: cell-based, Staphylococcus aureus; settings: S. aureus CCARM 3090, antibiotic-resistant
Excerpt: as §1, §2

[6] = test system: S. aureus CCARM 3114; assay: microbe, parasite or virus in culture; assay type: cell-based, Staphylococcus aureus; settings: S. aureus CCARM 3114, antibiotic-resistant
Excerpt: as §1, §2

[7] = test system: P. aeruginosa 1034; assay: microbe, parasite or virus in culture; assay type: cell-based, Pseudomonas aeruginosa; settings: P. aeruginosa 1034, antibiotic-resistant, from otitis media patients
Excerpt: as §1, §2

[8] = test system: P. aeruginosa 4891; assay: microbe, parasite or virus in culture; assay type: cell-based, Pseudomonas aeruginosa; settings: P. aeruginosa 4891, antibiotic-resistant, from otitis media patients
Excerpt: as §1, §2

[9] = test system: P. aeruginosa 4007; assay: microbe, parasite or virus in culture; assay type: cell-based, Pseudomonas aeruginosa; settings: P. aeruginosa 4007, antibiotic-resistant, from otitis media patients
Excerpt: as §1, §2

[10] = test system: P. aeruginosa 3904; assay: microbe, parasite or virus in culture; assay type: cell-based, Pseudomonas aeruginosa; settings: P. aeruginosa 3904, antibiotic-resistant, from otitis media patients
Excerpt: as §1, §2

[11] = test system: human erythrocytes; assay: Hemolytic activity; assay type: cell-based; settings: for HC10 / HC50: human erythrocytes 8% in PBS, 37° C., 1 hour; for HC10: first value of HC10/HC50 cell; for HC50: second value of HC10/HC50 cell; for hemolytic activity: human erythrocytes, up to 800 μM peptide
Description: To investigate whether or not the peptide HPA3P2 that has the folding structure as prepared in Example 1 had cytotoxicity, the hemolytic activity of the peptide having the folding structure was measured.
Particularly, human erythrocytes were diluted in PBS (pH 7.0) at the concentration of 8%, to which the peptides represented by SEQ. ID. […] Then, centrifugation was performed at 1,000 g. Hemoglobin included in the supernatant was measured by measuring OD414. To compare and measure the level of cell destruction, 1% triton X-100 (Sigma, USA) was added to the human erythrocytes, and then OD of the supernatant was measured. The cell destruction capacity of the said 1% triton X-100 was considered as 100%, based on which the erythrocyte destruction capacity of each peptide including the peptide of the invention and the peptides listed in Table 1 was calculated by the below mathematical formula 1. % hemolysis=(ODA−ODB/ODC−ODB)×100 [Mathematical Formula 1] In the above mathematical formula 1, ODA is the OD of the peptide solution measured at 414 nm, and ODB is the OD of PBS measured at 414 nm, and ODC is the OD of 1% triton X-100 measured at 414 nm.

[12] = test system: human keratinocyte HaCaT cell line; assay: Cytotoxicity in normal cell line (MTT); assay type: cell-based; settings: HaCaT cells, 24 hours
Description: (§3) To investigate whether or not the peptides prepared in Example 1 had cytotoxicity in normal cell line, the inventors investigated cytotoxicity in the human keratinocyte HaCaT cell line (Dr. N E. Fusenig, Heidelberg, Germany).
(§4) Particularly, human keratinocyte HaCaT cells were cultured in DMEM (Dulbecco's Modified Eagle's Medium) supplemented with 10% FBS (Fetal Bovine Serum), which were then distributed in a 96-well plate at the density of 2×10^4 cells/well, followed by further culture for 24 hours. The peptides prepared in Example 1 were treated at different concentrations, followed by reaction in a 5% CO2 incubator for 24 hours. Upon completion of the culture, 20 μl of phosphate buffered saline (PBS) wherein MTT (Thiazolyl Blue Tetrazolium Bromide) was dissolved at the concentration of 5 mg/ml was added to each well, followed by culture for 4 hours. The supernatant was discarded. Then, the generated MTT crystal was dissolved in 200 μl of DMSO. OD560 was measured.

[13] = Cytotoxicity in normal cell line (MTT); assay type: cell-based, human; settings: human, HaCaT cells (human keratinocyte cell line), read-out: EC50 (50% cytotoxicity inhibition concentration)
Description: as §3, §4

[14] = test system: E. coli (KCTC 1682); assay type: cell-based; settings: Escherichia coli KCTC 1682; 37° C., 6 hours, OD620
Excerpt: as §1, §2

[15] = test system: Pseudomonas aeruginosa (KCTC 1637); assay type: cell-based; settings: 37° C., 6 hours, OD620
Excerpt: as §1, §2

[16] = test system: Staphylococcus aureus (KCTC 1637); assay type: cell-based; settings: 37° C., 6 hours, OD620
Excerpt: as §1, §2

[17] = test system: Bacillus subtilis (KCTC 1918); assay type: cell-based; settings: 37° C., 6 hours, OD620
Excerpt: as §1, §2

[18] = test system: E. coli cells; assay: SYTOX-Green fluorescence intensity in E. coli; assay type: cell-based; settings: E. coli 2×10^7 cells/ml, 1 μM SYTOX-Green, over time and peptide concentration
Description: The SYTOX-Green fluorescence and luminous intensity of the peptide prepared in Example 1 were measured over the time.
Particularly, E. coli cells were cultured in LB medium at 37° C. The cells were diluted in 10 mM sodium phosphate buffer at the density of 2×10^7 cells/ml. 1 μM of SYTOX-Green was treated to the cells, followed by reaction in a dark incubator for 15˜20 minutes. The comparative peptides (HPA3P(A) and Buporin-2(C)), and the experimental peptide HPA3P2(B) were treated at the minimum inhibition concentration. The increasing fluorescence intensity emitted from SYTOX-Green was measured (excitation wavelength: 484 nm, emission wavelength: 520 nm).

| Molecule | HC10 [11] | HC50 [11] | hemolytic activity [11] | MIC [7] [µM] | MIC [8] [µM] | MIC [9] [µM] | MIC [10] [µM] | MIC [3] [µM] | MIC [4] [µM] | MIC [5] [µM] | MIC [6] [µM] | MIC [1] [µM] | MIC [2] [µM] | EC10 (10% cytotoxicity inhibition concentration) [12] | MIC Ec [14] [µM] | MIC Pa [15] [µM] | MIC Sa [16] [µM] | MIC Bs [17] [µM] | also measured |
| --- | --- | --- | --- | --- | --- | --- | --- | --- | --- | --- | --- | --- | --- | --- | --- | --- | --- | --- | --- |
| CC1(C)S[C@@H]2[C@H](NC(=O)[C@H](N)c3ccccc3)C(=O)N2[C@H]1C(=O)O [Ampicillin] | – | – | – | – | – | – | – | – | – | – | – | – | – | – | – | – | – | – | MIC ([1]; Escherichia coli, CCARM1229, read-out: MIC): > 800 µM; MIC ([2]; Escherichia coli, CCARM1238, read-out: MIC): > 800 µM |
| CC[C@H]1OC(=O)[C@H](C)[C@@H](O[C@H]2C[C@@](C)(OC)[C@@H](O)[C@H](C)O2)[C@H](C)[C@@H](O[C@@H]2O[C@H](C)C[C@H](N(C)C)[C@H]2O)[C@](C)(O)C[C@@H](C)C(=O)[C@H](C)[C@@H](O)[C@]1(C)O [Erythromycin] | – | – | – | – | – | – | – | – | – | – | – | – | – | – | – | – | – | – | MIC ([3]; Staphylococcus aureus, CCARM3018): > 800 µM; MIC ([4]; Staphylococcus aureus, CCARM3126): > 800 µM; MIC ([5]; Staphylococcus aureus, CCARM3090): > 800 µM; MIC ([6]; Staphylococcus aureus, CCARM3114): > 800 µM |
| CCN1CCN(C(=O)N[C@@H](C(=O)N[C@@H]2C(=O)N3[C@@H]2SC(C)(C)[C@@H]3C(=O)O)c2ccccc2)C(=O)C1=O [Piperacillin] | – | – | – | – | – | – | – | – | – | – | – | – | – | – | – | – | – | – | MIC ([7]; Pseudomonas aeruginosa): > 400 µM; MIC ([8]; Pseudomonas aeruginosa): > 400 µM; MIC ([9]; Pseudomonas aeruginosa): > 400 µM; MIC ([10]; Pseudomonas aeruginosa): > 400 µM |
| AKKVFKRLPKLFSKIWNWK-NH2 [HPA3P, AKKVFKRLPKLFSKIWNWK-NH2] | >800/>800 μM | >800/>800 μM | not observed | 1 | 1 | 1 | 1 | 1 | 1 | 1 | 1 | 0.5 to 1 | 0.5 to 1 | 151.1 µM and 151.5 µM | 1 | 8 | 16 | 2 | EC50 at 24 h [13]: 381 µM |
| AKKVFKRLPKLPSKIWNWK-NH2 [HPA3P2, AKKVFKRLPKLPSKIWNWK-NH2] | >800/>800 μM | >800/>800 μM | not observed | 1 | 1 | 1 | 1 | 1 | 1 | 1 | 1 | 0.5 to 1 | 0.5 to 1 | 180.5 µM | 16 | 16 | >64 | >64 | – |
| buforin-2 | – | – | – | – | – | – | – | – | – | – | – | – | – | – | – | – | – | – | change of SYTOX-Green fluorescence intensity [18]: the fluorescence intensity is changed |
